Assay results from US10457691B2, “Macrocyclic kinase inhibitors and uses thereof” (Dana-Farber Cancer Institute, Inc., priority 2014, dated 2019).

Assays:
Type in all cases: biochemical
Conditions in all cases: read-out: Activity of the protein kinase when treated with compound I-1 (% control)
PRAK = PRAK (Homo sapiens, UniProt Q8IW41); assay: Protein kinase assay ([γ-32P] ATP), PRAK
Description: (§1) In another set of experiments, the activities of the compounds described herein against various protein kinases were determined according to the methods reported in Hastie et al., Nature Protocols, 2006, 1, 968-971.
(§2) Enzyme dilution buffer. This buffer consisted of 50 mM Tris-HCl, pH 7.5, 0.1 mM EGTA, 1 mg ml^−1 bovine serum albumin and 0.1% (vol/vol) 2-mercaptoethanol.
(§3) 10× concentrated assay buffer. An assay buffer of 500 mM Tris-HCl, pH 7.5, 1 mM EGTA, and 100 mM magnesium acetate was used for assay of a wide variety of protein kinases. In some experiments, other cofactors were included (e.g., calcium ions and calmodulin were included for assay of calcium-calmodulindependent protein kinases).
(§4) 1 mM [γ-^32P] ATP. The specific activity of the [γ-^32P] ATP solution was 1×10^5 to 1×10^6 c.p.m. per nmol depending on what was needed to produce an optimal signal/noise ratio. […] To measure the concentration of ATP, a sample of such a stock solution was diluted to 20 μM, and the absorbance of the diluted sample was measured at 259 nm. The absorbance of a 20-μM stock solution of ATP at 259 nm was about 0.31. […] ATP to produce a radioactivity of 1×10^5 to 1×10^6 c.p.m. per nmol. […]
(§5) 13) Measure radioactivity in the samples by Cerenkov counting (e.g., without liquid scintillation fluid) in a liquid scintillation counter using a “^32P program”. […]

Aurora B = Aurora B (Homo sapiens, UniProt Q96GD4); assay: Protein kinase assay ([γ-32P] ATP), Aurora B
Sequence of Aurora B (Q96GD4 whole entry): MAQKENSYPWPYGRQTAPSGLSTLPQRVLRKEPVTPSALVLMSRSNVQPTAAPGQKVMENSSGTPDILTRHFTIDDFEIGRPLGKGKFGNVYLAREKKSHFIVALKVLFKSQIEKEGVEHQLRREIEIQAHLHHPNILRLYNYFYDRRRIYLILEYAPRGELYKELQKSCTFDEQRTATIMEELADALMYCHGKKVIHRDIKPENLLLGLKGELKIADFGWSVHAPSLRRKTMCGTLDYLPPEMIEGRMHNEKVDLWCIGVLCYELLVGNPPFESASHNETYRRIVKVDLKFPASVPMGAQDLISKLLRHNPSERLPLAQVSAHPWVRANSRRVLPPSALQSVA
Description: as §1, §2, §3, §4, §5

PAK6 = PAK6 (Homo sapiens, UniProt Q9NQU5); assay: Protein kinase assay ([γ-32P] ATP), PAK6
Description: as §1, §2, §3, §4, §5

PKA = PKA (Homo sapiens, UniProt P17612); assay: Protein kinase assay ([γ-32P] ATP), PKA
Description: as §1, §2, §3, §4, §5

BRSK2 = BRSK2 (Homo sapiens, UniProt Q8IWQ3); assay: Protein kinase assay ([γ-32P] ATP), BRSK2
Sequence of BRSK2 (Q8IWQ3 whole entry): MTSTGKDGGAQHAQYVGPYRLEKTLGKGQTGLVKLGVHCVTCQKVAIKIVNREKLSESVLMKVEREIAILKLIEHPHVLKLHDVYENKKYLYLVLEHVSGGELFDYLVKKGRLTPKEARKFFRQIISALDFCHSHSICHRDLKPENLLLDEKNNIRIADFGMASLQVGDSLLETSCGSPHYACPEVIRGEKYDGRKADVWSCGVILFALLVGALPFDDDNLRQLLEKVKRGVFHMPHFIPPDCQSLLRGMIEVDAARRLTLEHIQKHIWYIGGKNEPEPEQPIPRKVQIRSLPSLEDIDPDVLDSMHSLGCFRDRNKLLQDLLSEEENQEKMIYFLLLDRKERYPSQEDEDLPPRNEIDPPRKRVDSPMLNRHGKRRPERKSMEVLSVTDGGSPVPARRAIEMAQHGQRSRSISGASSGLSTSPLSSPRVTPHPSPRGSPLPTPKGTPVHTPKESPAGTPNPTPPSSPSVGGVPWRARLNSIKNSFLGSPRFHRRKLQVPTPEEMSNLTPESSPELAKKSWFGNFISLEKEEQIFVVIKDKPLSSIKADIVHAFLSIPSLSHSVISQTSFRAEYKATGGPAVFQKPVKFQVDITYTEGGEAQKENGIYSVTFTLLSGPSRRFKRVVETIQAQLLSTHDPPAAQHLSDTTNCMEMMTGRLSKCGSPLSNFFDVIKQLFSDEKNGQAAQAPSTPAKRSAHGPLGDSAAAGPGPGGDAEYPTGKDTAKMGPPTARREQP
Description: as §1, §2, §3, §4, §5

MELK = MELK (Homo sapiens, UniProt Q14680); assay: Protein kinase assay ([γ-32P] ATP), MELK
Sequence of MELK (Q14680 whole entry): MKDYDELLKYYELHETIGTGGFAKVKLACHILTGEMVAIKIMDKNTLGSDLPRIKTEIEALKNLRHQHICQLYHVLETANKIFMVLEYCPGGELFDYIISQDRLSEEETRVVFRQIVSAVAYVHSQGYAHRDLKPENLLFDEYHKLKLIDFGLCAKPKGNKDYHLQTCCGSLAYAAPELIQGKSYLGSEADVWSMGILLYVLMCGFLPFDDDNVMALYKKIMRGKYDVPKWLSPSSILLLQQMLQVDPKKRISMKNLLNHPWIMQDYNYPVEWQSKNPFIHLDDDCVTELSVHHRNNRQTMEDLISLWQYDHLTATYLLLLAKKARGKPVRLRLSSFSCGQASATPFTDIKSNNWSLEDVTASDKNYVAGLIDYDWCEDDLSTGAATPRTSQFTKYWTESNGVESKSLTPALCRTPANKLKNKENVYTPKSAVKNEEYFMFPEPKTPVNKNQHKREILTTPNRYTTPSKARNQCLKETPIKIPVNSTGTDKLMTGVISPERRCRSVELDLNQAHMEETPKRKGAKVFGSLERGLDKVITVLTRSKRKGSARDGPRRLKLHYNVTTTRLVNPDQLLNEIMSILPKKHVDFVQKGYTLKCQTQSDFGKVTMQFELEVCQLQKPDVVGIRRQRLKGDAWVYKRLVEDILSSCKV
Description: as §1, §2, §3, §4, §5

PAK4 = PAK4 (Homo sapiens, UniProt O96013); assay: Protein kinase assay ([γ-32P] ATP), PAK4
Sequence of PAK4 (O96013 whole entry): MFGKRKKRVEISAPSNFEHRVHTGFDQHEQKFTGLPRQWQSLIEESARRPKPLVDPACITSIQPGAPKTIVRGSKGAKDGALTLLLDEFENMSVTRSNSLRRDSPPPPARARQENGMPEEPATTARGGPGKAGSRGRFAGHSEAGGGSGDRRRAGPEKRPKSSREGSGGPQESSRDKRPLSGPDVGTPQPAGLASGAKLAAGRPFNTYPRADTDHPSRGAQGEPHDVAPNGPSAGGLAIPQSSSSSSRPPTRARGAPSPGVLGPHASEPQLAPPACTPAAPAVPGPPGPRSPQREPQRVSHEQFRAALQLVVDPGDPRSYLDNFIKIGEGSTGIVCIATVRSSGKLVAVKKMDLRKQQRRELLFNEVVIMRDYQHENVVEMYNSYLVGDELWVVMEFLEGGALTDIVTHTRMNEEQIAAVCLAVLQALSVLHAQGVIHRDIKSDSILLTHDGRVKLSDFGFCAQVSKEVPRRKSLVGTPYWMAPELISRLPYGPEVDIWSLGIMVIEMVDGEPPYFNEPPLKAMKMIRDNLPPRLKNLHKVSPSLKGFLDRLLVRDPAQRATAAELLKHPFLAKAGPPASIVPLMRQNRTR
Description: as §1, §2, §3, §4, §5

EPH-B3 = EPH-B3 (Homo sapiens, UniProt P54753); assay: Protein kinase assay ([γ-32P] ATP), EPH-B3
Sequence of EPH-B3 (P54753 34-998): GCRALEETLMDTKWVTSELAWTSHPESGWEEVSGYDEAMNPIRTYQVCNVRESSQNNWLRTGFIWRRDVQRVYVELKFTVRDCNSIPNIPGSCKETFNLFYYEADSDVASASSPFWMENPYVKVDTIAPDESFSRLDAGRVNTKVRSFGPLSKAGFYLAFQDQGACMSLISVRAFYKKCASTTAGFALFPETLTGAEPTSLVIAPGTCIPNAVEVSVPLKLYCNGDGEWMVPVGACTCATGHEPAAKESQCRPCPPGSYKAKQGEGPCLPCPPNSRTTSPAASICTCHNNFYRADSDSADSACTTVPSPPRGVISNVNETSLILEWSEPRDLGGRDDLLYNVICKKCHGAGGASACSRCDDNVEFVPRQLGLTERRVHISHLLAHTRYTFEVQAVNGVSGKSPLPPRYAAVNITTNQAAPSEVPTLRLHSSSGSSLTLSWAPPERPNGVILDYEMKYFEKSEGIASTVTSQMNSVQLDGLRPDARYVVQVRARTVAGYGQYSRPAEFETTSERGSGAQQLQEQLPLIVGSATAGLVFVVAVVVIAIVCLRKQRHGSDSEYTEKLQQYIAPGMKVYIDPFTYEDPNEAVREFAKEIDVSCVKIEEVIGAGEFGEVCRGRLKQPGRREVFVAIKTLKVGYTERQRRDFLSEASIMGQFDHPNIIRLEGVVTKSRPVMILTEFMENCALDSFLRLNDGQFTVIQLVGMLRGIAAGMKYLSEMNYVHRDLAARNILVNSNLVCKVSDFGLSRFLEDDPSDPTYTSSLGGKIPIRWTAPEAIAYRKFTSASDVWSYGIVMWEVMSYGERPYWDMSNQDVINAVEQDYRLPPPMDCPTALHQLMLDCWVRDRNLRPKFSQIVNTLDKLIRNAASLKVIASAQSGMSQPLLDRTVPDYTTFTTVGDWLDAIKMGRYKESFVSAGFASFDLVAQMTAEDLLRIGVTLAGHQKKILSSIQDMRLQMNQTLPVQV
Description: as §1, §2, §3, §4, §5

p38b MAPK = p38b MAPK (Homo sapiens, UniProt Q15759); assay: Protein kinase assay ([γ-32P] ATP), p38b MAPK
Sequence of p38b MAPK (Q15759 whole entry): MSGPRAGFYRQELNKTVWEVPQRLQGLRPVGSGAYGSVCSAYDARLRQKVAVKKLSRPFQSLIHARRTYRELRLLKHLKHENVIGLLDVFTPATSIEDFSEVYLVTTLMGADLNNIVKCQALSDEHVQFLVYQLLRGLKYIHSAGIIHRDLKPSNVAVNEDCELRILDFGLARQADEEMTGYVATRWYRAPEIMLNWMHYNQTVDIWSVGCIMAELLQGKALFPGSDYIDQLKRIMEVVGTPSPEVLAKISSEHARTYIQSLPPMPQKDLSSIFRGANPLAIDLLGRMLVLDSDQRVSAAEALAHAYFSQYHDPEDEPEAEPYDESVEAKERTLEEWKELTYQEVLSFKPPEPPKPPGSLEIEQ
Description: as §1, §2, §3, §4, §5

TESK1 = TESK1 (Homo sapiens, UniProt Q15569); assay: Protein kinase assay ([γ-32P] ATP), TESK1
Sequence of TESK1 (Q15569 whole entry, species assumed): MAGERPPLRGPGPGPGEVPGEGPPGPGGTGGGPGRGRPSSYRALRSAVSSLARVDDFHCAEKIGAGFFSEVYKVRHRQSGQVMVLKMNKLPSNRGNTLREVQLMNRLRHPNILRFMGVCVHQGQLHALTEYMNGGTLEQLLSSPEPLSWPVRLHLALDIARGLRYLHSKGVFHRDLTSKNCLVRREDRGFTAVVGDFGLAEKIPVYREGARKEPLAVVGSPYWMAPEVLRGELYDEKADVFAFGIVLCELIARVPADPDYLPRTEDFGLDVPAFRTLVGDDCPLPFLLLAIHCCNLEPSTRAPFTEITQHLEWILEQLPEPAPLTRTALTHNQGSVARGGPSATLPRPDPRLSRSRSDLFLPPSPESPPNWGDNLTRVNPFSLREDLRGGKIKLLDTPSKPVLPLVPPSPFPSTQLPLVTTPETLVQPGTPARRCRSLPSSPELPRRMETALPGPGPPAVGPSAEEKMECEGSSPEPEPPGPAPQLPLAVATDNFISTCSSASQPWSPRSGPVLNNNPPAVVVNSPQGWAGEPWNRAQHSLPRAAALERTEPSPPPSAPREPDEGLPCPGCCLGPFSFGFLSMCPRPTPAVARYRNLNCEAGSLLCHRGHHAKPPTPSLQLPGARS
Description: as §1, §2, §3, §4, §5

[1] = 0.1 μM of compound I-1, DMSO control = 100%
[2] = 1 μM of compound I-1, DMSO control = 100%

Sequence of PRAK (Q8IW41 whole entry, species assumed): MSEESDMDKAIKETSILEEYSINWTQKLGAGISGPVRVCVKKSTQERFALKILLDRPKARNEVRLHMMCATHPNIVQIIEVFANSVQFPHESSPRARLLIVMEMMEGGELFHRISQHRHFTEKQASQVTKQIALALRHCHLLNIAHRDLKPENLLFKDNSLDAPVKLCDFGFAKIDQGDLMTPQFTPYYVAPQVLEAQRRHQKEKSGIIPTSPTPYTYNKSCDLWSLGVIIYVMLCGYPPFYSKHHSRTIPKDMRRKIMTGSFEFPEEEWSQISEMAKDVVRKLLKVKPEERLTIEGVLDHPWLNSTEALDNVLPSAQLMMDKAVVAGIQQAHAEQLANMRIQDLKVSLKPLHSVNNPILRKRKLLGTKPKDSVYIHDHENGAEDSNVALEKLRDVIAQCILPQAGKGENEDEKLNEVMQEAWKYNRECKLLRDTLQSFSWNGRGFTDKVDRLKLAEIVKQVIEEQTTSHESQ

Cc1cccc(C)c1NC(=O)N1C/C=C\COc2cccc(c2)Nc2cc1ncn2 [Compound I-1]
remaining activity at 0.1 µM (PRAK; [1]): 107% | remaining activity at 1 µM (PRAK; [2]): 84% | remaining activity at 0.1 µM (Aurora B; [1]): 89% | remaining activity at 1 µM (Aurora B; [2]): 78% | remaining activity at 0.1 µM (PAK6; [1]): 101% | remaining activity at 1 µM (PAK6; [2]): 78% | remaining activity at 0.1 µM (PKA; [1]): 105% | remaining activity at 1 µM (PKA; [2]): 88% | remaining activity at 0.1 µM (BRSK2; [1]): 110% | remaining activity at 1 µM (BRSK2; [2]): 78% | remaining activity at 0.1 µM (MELK; [1]): 67% | remaining activity at 1 µM (MELK; [2]): 49% | remaining activity at 0.1 µM (PAK4; [1]): 100% | remaining activity at 1 µM (PAK4; [2]): 78% | remaining activity at 0.1 µM (EPH-B3; [1]): 25% | remaining activity at 1 µM (EPH-B3; [2]): 2% | remaining activity at 0.1 µM (p38b MAPK; [1]): 83% | remaining activity at 1 µM (p38b MAPK; [2]): 29% | remaining activity at 0.1 µM (TESK1; [1]): 40% | remaining activity at 1 µM (TESK1; [2]): 21%
